EP3423441B1, “IODINATED ANALOGS OF CHOLINE, METHODS OF PREPARATION THEREOF, AND USE THEREOF AS MEDICAMENTS” (Univerzita Palackého v Olomouci, priority 2016, dated 2017)
Like-named read-outs stand apart in the source and are kept apart here.

Key:
[1] = Binding to plasmatic proteins; conditions: plasma
[2] = tested on: choline transporters; experiment: In vitro determination of IC50: inhibition of [^3H]choline chloride accumulation in PC-3 cells; format: cell-based; conditions: cell line PC-3 (human prostate carcinoma); [^3H]choline chloride 0.81 × 10^-6 M; 60 min at 37 °C
Description: IC50 value corresponds to a concentration of the given analog of choline which reduces the accumulation of choline chloride, the natural ligand of choline transporterss, to 50 % of the maximum value. For the assay, the tritium labeled choline chloride, i.e. [^3H]choline chloride, was used. The assay was performed in vitro on the cell line PC-3 derived from a human prostate carcinoma, which is known to overexpress choline transporters. […] As the negative control, a cell line of human ovarian carcinoma SKOV3 prepared to the confluence of 90 % in 24-well plates was used.
The cultivation medium was removed from the thus prepared cells in cultivation plates and the cells were rinsed with phosphate buffered saline (PBS). Subsequently, 0.3 mL of "incubation buffer" (25 mM Tris/HCl, 5.4 mM KCl, 1.8 mM CaCl2, 0.8 mM MgSO4, 5 mM glucose, 140 mM NaCl, pH adjusted to 7.4) was added to the cells. Then 0.1 mL of the solution of the tested substance (analog of choline) in the incubation buffer was added to the PC-3 cells in such concentrations, that after adding [^3H]choline chloride the resulting concentrations of the tested analog would be following: 0 M, 10^-8 M, 10^-7 M, 10^-6 M, 5 × 10^-6 M, 10^-5 M, 10^-4 M, 5 × 10^-4 M, 10^-3 M, 5×10^-3 M. Each concentration was tested in triplicate.
Subsequently, all cells prepared in this manner (PC-3 and SKOV3) were incubated with the analogs of choline for 15 minutes at the temperature of 37 °C.
Then 0.1 mL of the solution of the [^3H]choline chloride in the incubation buffer was added to all cell-containing wells, so that 0.1 mL of the solution had the activity of 15 kBq and that the final concentration of the [^3H]choline chloride in the medium with the cells was 0.81 × 10^-6 M. The cells were then incubated at 37 °C for a period of 60 min. After the incubation, all buffer solution was removed from the cells. The cells were rinsed with PBS, which was subsequently removed, and 0.2 mL of aqueous NaOH solution (0.1 M) was added to each well. The cells were incubated with sodium hydroxide for 30 min at 37 °C. The lysate was then homogenized with a pipette and 10 µL of the lysate were used for the determination of protein concentration by bicinchonic acid assay (BCA).
The remaining lysate (180 µL) was quantitatively transferred into scintillation vials containing a previously prepared scintillation solution (2 mL of the solution in each vial). Each well was then additionally rinsed with 0.2 mL of pure water and this solution was added to the corresponding scintillation vials. Scintillation vials were closed and their content was stirred on a shaker.
To another three scintillation vials containing scintillation solution (2 mL of the solution in each vial) the standard samples of [^3H]choline chloride were added (i.e. 10 µl of the [^3H]choline chloride solution together with 180 µl of aqueous NaOH solution (0.1 M) and 200 µl of water). The vials were closed and their content was stirred on the shaker.
Subsequently, radioactivity of each scintillation vial was measured using a liquid scintillation counter (Tri-Carb 2910TR Liquid Scintillation Counter, PerkinElmer). The recorded counts per second (cps) were then used to calculate the accumulation of [^3H]choline chloride in the individual cell samples. […] These values were used to construct a sigmoid curve of dependence between the rate of [^3H]choline chloride accumulation and the competing ligand (analog of choline) concentration(inhibition curve, Figure 2). The IC50 values were calculated from these inhibition curves.

[3] = Stability in the plasma
[4] = Microsomal stability; conditions: hepatic microsomes
[5] = in vitro; conditions: liver microsomes
[6] = tested on: choline transporters; conditions: published data, Müller S. A. et al. (2009); cited from earlier work

Structure (SMILES)	fraction unbound [1]	IC50 [2] [µM]	Plasma stability (120 min) [3] [%]	Microsomal stability t1l2 [4] [min]	microsomal CLint [5] [µL/min/mg]	IC50 [6] [µM]
COc1c(I)cc(CC[N+](C)(C)CCO)cc1I.Cc1ccc(S(=O)(=O)[O-])cc1 [Example 3, (2-hydroxyethyl)-[2-(3,5-diiodo-4-methoxyphenyl)ethyl]-dimethylammonium 4-methylbenzenesulfonate]	0.512	25	76.4	1.3	1040	
Cc1ccc(S(=O)(=O)[O-])cc1.OC1C[N+]2(Cc3ccccc3I)CCC1CC2 (centres unmarked) [Example 18, 3-hydroxy-1-(2-iodobenzyl)quinuclidin-1-ium 4-methylbenzenesulfonate]	0.903	180	73.4	22.0	63	
COc1ccc(CC[N+]23CCC(CC2)C(O)C3)cc1I.Cc1ccc(S(=O)(=O)[O-])cc1 (centres unmarked) [Example 2, 3-hydroxy-1-[2-(3-iodo-4-methoxyphenyl)ethyl]quinuclidin-1-ium 4-methylbenzenesulfonate]	0.748	92	59.0	97.6	14.2	
C[N+]1(Cc2ccccc2I)CCCC(O)C1.Cc1ccc(S(=O)(=O)[O-])cc1 (centres unmarked) [Example 16, 3-hydroxy-1-(2-iodobenzyl)-1-methylpiperidin-1-ium 4-methylbenzenesulfonate]	0.956	240	79.0	119.5	11.6	
CC[N+](CC)(CCO)Cc1ccccc1I.Cc1ccc(S(=O)(=O)[O-])cc1 [Example 15, Diethyl-(2-hydroxyethyl)-(2-iodobenzyl)ammonium 4-methylbenzenesulfonate]	0.814	8.4	84.9	18.8	73.6	
Cc1ccc(S(=O)(=O)[O-])cc1.OCCN1CC[N+](CCO)(Cc2ccccc2I)CC1 [Example 17, 1,4-bis(2-hydroxyethyl)-1-(2-iodobenzyl)piperazin-1-ium 4-methylbenzenesulfonate]	0.943	740	58.4	1732.5	0.8	
COc1ccc(CC[N+](C)(C)CCO)cc1I.Cc1ccc(S(=O)(=O)[O-])cc1 [Example 1, (2-hydroxyethyl)-[2-(3-iodo-4-methoxyphenyl)ethyl]-dimethylammonium 4-methylbenzenesulfonate]	0.805	47	28.4	165.0	8.4	
C[N+]1(C)CCOC(O)(c2ccc(-c3ccc(C4(O)C[N+](C)(C)CCO4)cc3)cc2)C1 (centres unmarked) [Hemicholinium-3, reference compound]		29				17
C[N+]1(CCc2ccc(I)cc2)CCCC(O)C1.Cc1ccc(S(=O)(=O)[O-])cc1 (centres unmarked) [Example 6, 3-hydroxy-1-[2-(4-iodophenyl)ethyl]-1-methylpiperidin-1-ium 4-methylbenzenesulfonate]	0.735	83	81.3	1.1	1230	
Cc1ccc(S(=O)(=O)[O-])cc1.OC1C[N+]2(CCc3ccc(I)cc3)CCC1CC2 (centres unmarked) [Example 8, 3-hydroxy-1-[2-(4-iodophenyl)ethyl]quinuclidin-1-ium 4-methylbenzenesulfonate]	0.717	120	89.9	34.8	39.8	
